This note sets out measurements from article PMC9867837 (Cancer letters, 2022).

Series [1] has as its target T1, Stat1:Stat3 DNA-binding activity (Mus musculus, UniProt P42227).
T1 construct: endogenous in cells; host or cells: EGF-stimulated NIH3T3/hEGFR fibroblasts (nuclear extract)
The experiment in a line: EMSA of Stat1:Stat3 DNA-binding activity in nuclear extracts of EGF-stimulated NIH3T3/hEGFR. The series is classed as biochemical. The following applies: Fig. 1C, hSIE probe, 30 min. As to the method:
Details are presented in Supplementary Information, “Methods”. […]
min, prior to incubation with the radiolabeled probe for 30 min at 30 °C and subjecting to EMSA analysis.
In another case, the nuclear extract was pre-incubated with the radiolabeled probe for 30 min at 30 °C prior to incubation with increasing concentration of H182 at room temperature for 30 min and subjecting to EMSA analysis. Bands corresponding to Stats DNA- binding activities were scanned and quantified using ImageJ and plotted as a percentage of control (vehicle) against the concentration of the inhibitor, from which the IC50 values were derived .

The test system of series [2] is pS727Stat3, pYStat1, pY416Src, pY1068EGFR, pShc, pErk1/2MAPK, pS473Akt, and pJAK2. The experiment in a line: Western blotting for other signaling proteins in TNBC cells. Format: cell-based, human. The note with it: MDA-MB-231 and MDA-MB-468, 0.5–3 μM H182 for 2 h. The method, then:
These studies were performed as previously described. Details are presented in Supplementary Information, “Methods”.
We sought to assess any non-specific effects of the azetidine compounds. […] Samples of equal total protein were subjected to SDS-PAGE and Western blotting analysis. […] The total protein levels were unchanged, and the tubulin, β-actin, and GAPDH levels show equal protein loading.
(§1) These studies were performed as previously described [1 -3] . Briefly, snap-frozen tumor tissues or cultured cells treated or not were harvested and whole-cell or tissue lysates were prepared in radioimmunoprecipitation assay (RIPA) buffer. Samples of equal total protein were subjected to SDS - PAGE and immunoblotting analysis. Primary antibodies used were anti- Stat3, pY705-Stat3, pS727Stat3, […]
(§2) Akt, pT202/Y204Erk1/2 (p44/42), Erk1/2, PARP , caspase 3, c-Myc, survivin, VEGF, β-actin, α/β-tubulin, and GAPDH. For the studies of the effects of cell density and confluence on pY705Stat3, cells were seeded […] in culture dishes. The next day, cells were untreated (DMSO control, […]
(§3) concentration of H182 for 6 h and then treated with 0- 100 nM docetaxel or 0-20 µM cisplatin for a total of 72 h. Viable cell numbers were assessed by a CyQuant cell proliferation kit according to the manufacturer’s instructions (Thermo/Life Technologies Corp, Carlsbad, CA). […]

The target in series [3] is CYP3A (Homo sapiens, UniProt P08684). The experiment in a line: CYP inhibition, CYP3A. The series is classed as in vitro ADME. As to the method:
The in vivo activity of a compound is influenced by its overall bioavailability, which is also driven by parameters, such as solubility, permeability, and metabolism. […] These values are all above the industry cut-off of 60 μg/ml. […] It has CLint in human hepatocytes of 16 μL/min/10^6 cells, which falls into moderate stability range [43].

Series [4] has as its target T2, norepinephrine transporter (NET) (Homo sapiens, UniProt P23975).
T2 construct: Eurofins-CEREP (SafetyScreen44 panel)
Description: CEREP SafetyScreen44, norepinephrine transporter. Format: binding.

Series [5] deals with SH2 domain of pure recombinant Stat3 (Homo sapiens, UniProt P40763). The experiment in a line: Stat3 fluorescence polarization (FP) assay. The note with it: 0–10 μM, 5-carboxyfluorescein-GpYLPQTV-NH2 probe. The series is classed as binding. The method, then:
Details are presented in Supplementary Information, “Methods”.
The Stat3:azetidine compound interaction was investigated further by focusing on how the compounds might interfere with Stat3 dimerization (Stat3:Stat3), which occurs via pTyr peptide:SH2 domain interaction. […]
confocal microscope (Stellaris 8-STED Super -resolution , Germany) with a 60x oil lens and images were processed by ImageJ software.
1.2.9. Fluorescence polarization assay (FP)
These studies were conducted as previously reported using the labeled phosphopeptide, 5-carboxyfluorescein GpYLPQTV-NH 2 (where pY represents phospho-Tyr) as probe and purified recombinant Stat3, with some modifications. […]
10 µM of unlabeled GpYLPQTV-NH 2 (positive control) or H182 at 30 °C for 30 min in the indicated assay buffer conditions, prior to the addition of the labeled probe at 10 nM final concentration and incubated for 30 min at room temperature, and thereafter reading the FP signal at 10, 30, and 60 min using the SpectraMax ID5 (Molecular Devices, San Jose, CA), with the set gain adjustment at 35 mP. In some cases, the recombinant His-Stat3 was pre-incubated with the unlabeled GpYLPQTV-NH 2 or H182 at 0-10 µM for 10 min or at 0-50 µM for 30 min prior to incubation with the labeled probe, and thereafter reading the FP signal at 10, 30, or 60 min using the SpectraMax ID5, with the set gain adjustment at 35 mP.
1.2.10. […]
In general terms: Fluorescence polarisation rises when a labelled molecule tumbles more slowly, as on binding a larger partner.

Series [6] has as its target Stat3 (Homo sapiens, UniProt P40763). Description: Stat3 activity and target gene expression in extracted tumor tissues. Format: in vivo, mouse. Further details: Tissue lysates of equal total protein prepared from the extracted tumors; from tissue; host or cells: extracted tumour tissue from treated and untreated mice. The method, then:
We then profiled tumor tissues for Stat3 activity and Stat3 target gene expression as pharmacodynamic markers of therapeutic response. Tissue lysates of equal total protein prepared from the extracted tumors were subjected to Stat3 DNA-binding assay/EMSA analysis or SDS-PAGE and immunoblotting analysis.
as §1, §2, §3

Like-named read-outs stand apart in the source and are kept apart here. Where only a bound is given, the exact number is not on record here.

T2 sequence (P23975 whole entry): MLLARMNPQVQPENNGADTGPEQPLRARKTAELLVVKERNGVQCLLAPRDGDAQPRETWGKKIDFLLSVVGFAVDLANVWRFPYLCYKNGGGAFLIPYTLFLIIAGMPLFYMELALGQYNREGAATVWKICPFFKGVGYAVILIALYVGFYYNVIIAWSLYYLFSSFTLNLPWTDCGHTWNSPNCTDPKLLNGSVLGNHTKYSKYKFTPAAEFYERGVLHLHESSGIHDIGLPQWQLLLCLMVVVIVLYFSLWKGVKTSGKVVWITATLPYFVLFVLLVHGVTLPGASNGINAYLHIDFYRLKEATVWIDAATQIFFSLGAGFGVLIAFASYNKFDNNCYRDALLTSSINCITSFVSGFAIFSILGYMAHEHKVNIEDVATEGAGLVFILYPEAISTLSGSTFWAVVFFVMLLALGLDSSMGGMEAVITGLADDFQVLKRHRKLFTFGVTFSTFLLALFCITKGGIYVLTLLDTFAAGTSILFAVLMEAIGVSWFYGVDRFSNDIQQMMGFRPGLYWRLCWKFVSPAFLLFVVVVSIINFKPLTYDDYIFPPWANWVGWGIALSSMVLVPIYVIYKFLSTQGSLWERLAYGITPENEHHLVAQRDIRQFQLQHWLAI
Sequence of Stat3 (P40763 2-770 limits assumed): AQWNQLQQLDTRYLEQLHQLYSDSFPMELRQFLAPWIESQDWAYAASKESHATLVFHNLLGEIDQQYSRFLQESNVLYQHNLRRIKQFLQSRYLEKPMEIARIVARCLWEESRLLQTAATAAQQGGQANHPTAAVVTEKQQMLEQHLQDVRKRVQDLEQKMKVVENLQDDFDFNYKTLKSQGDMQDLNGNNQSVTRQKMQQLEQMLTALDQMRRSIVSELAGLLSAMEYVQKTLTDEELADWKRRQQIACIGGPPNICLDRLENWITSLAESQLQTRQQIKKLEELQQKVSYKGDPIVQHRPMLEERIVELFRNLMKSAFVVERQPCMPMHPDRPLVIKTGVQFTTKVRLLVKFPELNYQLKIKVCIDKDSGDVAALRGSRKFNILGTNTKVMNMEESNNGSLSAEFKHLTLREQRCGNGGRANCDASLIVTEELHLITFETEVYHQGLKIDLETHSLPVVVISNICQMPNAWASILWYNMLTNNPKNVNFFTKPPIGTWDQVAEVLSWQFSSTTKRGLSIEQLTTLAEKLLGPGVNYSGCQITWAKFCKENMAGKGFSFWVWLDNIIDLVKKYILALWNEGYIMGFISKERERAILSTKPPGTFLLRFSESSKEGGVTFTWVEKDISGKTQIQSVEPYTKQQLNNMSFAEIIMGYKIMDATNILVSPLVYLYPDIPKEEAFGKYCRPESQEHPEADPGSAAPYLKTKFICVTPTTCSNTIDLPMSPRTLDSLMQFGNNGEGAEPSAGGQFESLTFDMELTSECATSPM
Sequence of CYP3A (P08684 2-503): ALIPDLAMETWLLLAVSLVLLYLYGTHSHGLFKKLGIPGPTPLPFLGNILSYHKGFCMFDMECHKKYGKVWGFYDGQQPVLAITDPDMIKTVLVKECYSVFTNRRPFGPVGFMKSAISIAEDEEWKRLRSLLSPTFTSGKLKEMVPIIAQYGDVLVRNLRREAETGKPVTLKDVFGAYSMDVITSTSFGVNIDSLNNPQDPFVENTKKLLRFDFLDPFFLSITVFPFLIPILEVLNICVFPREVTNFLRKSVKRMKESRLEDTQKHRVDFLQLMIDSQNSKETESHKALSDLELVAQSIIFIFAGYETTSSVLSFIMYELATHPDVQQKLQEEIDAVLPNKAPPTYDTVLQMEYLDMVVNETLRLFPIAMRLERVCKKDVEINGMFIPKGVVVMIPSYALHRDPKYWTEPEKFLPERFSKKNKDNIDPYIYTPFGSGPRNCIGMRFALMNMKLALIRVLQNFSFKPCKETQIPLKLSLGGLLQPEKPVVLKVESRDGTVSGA
T1 sequence (P42227 2-770 limits assumed): as the sequence (P40763 2-770 limits assumed) above, with E759D counted along it
T1 sequence (P42225 2-749 partner limits assumed): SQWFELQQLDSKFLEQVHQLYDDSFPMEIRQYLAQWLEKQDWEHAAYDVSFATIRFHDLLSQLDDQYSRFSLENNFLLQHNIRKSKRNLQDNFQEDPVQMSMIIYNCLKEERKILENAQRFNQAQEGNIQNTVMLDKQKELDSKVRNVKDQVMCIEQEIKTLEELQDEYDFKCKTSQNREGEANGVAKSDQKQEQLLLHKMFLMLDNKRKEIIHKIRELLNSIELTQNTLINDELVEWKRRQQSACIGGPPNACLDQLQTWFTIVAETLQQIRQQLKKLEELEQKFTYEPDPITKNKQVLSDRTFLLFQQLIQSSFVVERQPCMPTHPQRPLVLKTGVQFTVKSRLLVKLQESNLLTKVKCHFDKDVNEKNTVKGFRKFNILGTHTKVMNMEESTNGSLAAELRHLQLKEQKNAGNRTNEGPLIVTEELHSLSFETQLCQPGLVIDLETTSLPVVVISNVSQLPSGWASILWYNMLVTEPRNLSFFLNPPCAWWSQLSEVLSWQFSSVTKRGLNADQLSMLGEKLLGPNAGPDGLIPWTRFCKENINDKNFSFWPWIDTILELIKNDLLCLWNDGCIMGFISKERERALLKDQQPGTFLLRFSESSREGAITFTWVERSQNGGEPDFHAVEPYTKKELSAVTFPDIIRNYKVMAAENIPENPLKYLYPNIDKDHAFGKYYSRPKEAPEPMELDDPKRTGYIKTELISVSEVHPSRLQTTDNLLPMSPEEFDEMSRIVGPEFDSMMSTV
Sequence of SH2 domain of pure recombinant Stat3 (P40763 whole entry, the tested form may be a part): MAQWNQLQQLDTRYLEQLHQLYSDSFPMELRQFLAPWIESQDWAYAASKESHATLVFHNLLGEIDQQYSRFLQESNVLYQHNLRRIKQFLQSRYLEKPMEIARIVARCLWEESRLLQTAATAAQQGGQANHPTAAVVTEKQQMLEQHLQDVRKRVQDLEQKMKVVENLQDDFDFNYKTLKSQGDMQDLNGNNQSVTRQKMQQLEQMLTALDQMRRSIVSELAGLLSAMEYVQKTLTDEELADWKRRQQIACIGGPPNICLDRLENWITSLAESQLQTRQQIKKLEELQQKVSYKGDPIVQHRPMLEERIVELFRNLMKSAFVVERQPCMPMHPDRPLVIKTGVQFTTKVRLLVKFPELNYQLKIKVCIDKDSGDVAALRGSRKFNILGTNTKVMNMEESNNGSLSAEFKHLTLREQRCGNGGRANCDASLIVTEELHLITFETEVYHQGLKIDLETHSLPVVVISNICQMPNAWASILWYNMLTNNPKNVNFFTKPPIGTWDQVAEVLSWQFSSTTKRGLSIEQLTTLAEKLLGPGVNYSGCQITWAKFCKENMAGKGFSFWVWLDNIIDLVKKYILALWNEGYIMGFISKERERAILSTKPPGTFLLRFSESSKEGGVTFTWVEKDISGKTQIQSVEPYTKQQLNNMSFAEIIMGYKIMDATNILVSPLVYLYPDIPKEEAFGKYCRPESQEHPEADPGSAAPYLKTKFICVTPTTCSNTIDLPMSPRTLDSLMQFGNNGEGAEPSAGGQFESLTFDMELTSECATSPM

In the case of `O=C([C@H]1CCN1S(=O)(=O)c1c(F)c(F)c(F)c(F)c1F)N(Cc1ccc(C2CCCCC2)cn1)c1ccc2c(=O)[nH]ncc2c1` [Compound H182], the IC50 – broadly, the point on the concentration scale where inhibition reaches its midpoint – in series [1] is 3400 nM; in series [3] (probe midazolam, midazolam site, read-out: CYP Inhibition CYP3A (Midazolam) IC50), 6900 nM; in series [3] (probe testosterone, testosterone site, read-out: CYP Inhibition CYP3A (Testosterone) IC50), 1200 nM; in series [4] (SafetyScreen44 follow-up dose-response), 400 nM. Also, the “Effect on constitutive or EGF-induced pS727Stat3, pYStat1, pY416Src, pY1068EGFR, pShc, pErk1/2MAPK, pS473Akt, and pJAK2” value in series [2] is given as “no inhibitory effect”. Besides, the inhibition (usually the percentage by which the read-out fell short of the control) at 10 µM in series [4] (10 μM H182) is over 80%. Further, the “Effect on FP signal” value in series [5] was “fluctuations of the FP signal”. Besides, the “Stat3 DNA-binding activity in tumor tissues” value in series [6] (EMSA of tumor tissue lysates, treated vs untreated control) is on record as “suppressed Stat3 DNA-binding activity in tumor tissues”. The “Expression of c-Myc, VEGF, and survivin in tumor tissues” value in series [6] (immunoblotting of tumor tissue lysates) is reported as “suppression of the expression of Stat3 downstream genes”.
